Measurements reported in patent US20060058392A1, “Use of a rhein in a therapeutic treatment requiring a rise in the rate of heme oxygenase” (priority 2002, published 2006).

Experiments:
[1] = test system: heme oxygenase-1 (HO-1); experiment: Western blot of HO-1 expression in mice macrophages; format: cell-based; conditions: 10^−5 M, analysed at 15, 30, 60 min (diacerein, FIG. 7b) or 0-120 min and 18 h (rhein, FIG. 7c)
Method: FIGS. 7b and 7c are also <<Western blots >> of cells (model: mice macrophages) cultivated with and without diacerein (FIG. 7b: columns “Dε” and “Cε” respectively) or rhein (FIG. 7c) at a concentration of 10^−5 M, and later analysed at 15, 30 and 60 minutes (FIG. 7b) and at 0, 15, 30, 60, 120 minutes as well as 18 hours (FIG. 7c). The identity of the protein of interest, HO-1, was confirmed as regards its molecular mass (first column on the left in the Figures).

[2] = test system: human chondrocytes; experiment: Human chondrocyte culture treated with erythrocyte lysate (cellular viability, apoptosis); format: cell-based; conditions: lysate of 3×10^6 erythrocytes, 100 μM
Method: The whole cellular culture was measured by its cellular viability (live cells compared to the control), the presence of apoptosis (nuclear fragmentation; in number and percentage compared to the control), and the incorporation of radioactive sulphate (^35SO4; in coups per minutes, CPM).
As was already observed with the femoral head cartilage, the erythrocytes, erythrocyte lysate and haemoglobin also cause cellular destruction in this model. However, stress-induced HSPs prevent this cellular destruction and preserve the cells, as shown on FIG. 6 which counts the live cells (model: human chondrocytes under thermal stress (1 h at 43° C.) and treated with erythrocyte lysate (3×10^6); sem=standard error).

[3] = test system: TO mice implanted with rat tissue; experiment: Induced granuloma and tissue degradation of rat tissue implanted subcutaneously in mice; format: in vivo, mouse; conditions: for integrity of the implanted/grafted tissue / tissular reaction (granuloma, inflammatory cells, exudate) caused by the transplant of rat tissue to the mouse: overall statement
Method: The effect of diacerein, rhein and their salts or esters on the intensity of the tissular reaction and the destruction and rejection phenomena was assessed following a tissue implantation, using the model of induced granuloma and tissue degradation of rat tissue in mice (Bottomley K M and al., Osteoarthritis and Cartilage (1998) 6: 19-23.).
The method comprises the following steps: • The isolated tissue (Wistar rat, male) are placed in sterile cotton and implanted subcutaneously in TO mice; • the subcutaneous implants are kept for a period of 2 weeks; • daily treatment of the animals with diacerein, rhein, their salts or esters, as well as with the controls and comparatives, at the optimum doses indicated; • collection of the implanted tissue and of the reactive granuloma; • measurement of the degree of tissular inflammatory response (assessment of the dimensions of the granuloma, of the number of inflammatory cells in the exudate and of the volume of the exudate), and of the rejection (assessment of the degradation of the implanted tissue).

[4] = cited from earlier work
[5] = test system: patients presenting with osteoarthritis; conditions: cited from earlier work; for antalgic and anti-inflammatory symptomatic activity: acute phase of osteoarthritis, Nguyen et al. 1994
[6] = test system: heme oxygenase-1 (HO-1); experiment: Western blot of HO-1 expression in rat femoral head cartilage culture; format: cell-based; conditions: diacerein 10 μM and 100 μM, compared to control and reference solution, FIG. 7a

Row | SMILES | expression of HO-1 [1] | apoptosis caused by the erythrocyte lysate ([2]; FIG. 9) | integrity of the implanted/grafted tissue [3] | tissular reaction (granuloma, inflammatory cells, exudate) caused by the transplant of rat tissue to the mouse [3] | solubility in alcohols [4] | solubility in water [4] | antalgic and anti-inflammatory symptomatic activity [5] | expression of HO-1 [6] | cellular destruction caused by the erythrocyte lysate (live cells) ([2]; FIG. 8) | tissular reaction (formation of the reactive granuloma) ([3]; 5, 15 and 50 mg/kg per oral route, daily, 2 weeks, p<0.01 vs control, FIG. 10) | integrity of the grafted tissue: content in collagen ([3]; 5, 15 and 50 mg/kg per oral route, p<0.05 / p<0.01 vs control, FIG. 12 left) | integrity of the grafted tissue: content in glycosamino-glycan (GAG) ([3]; 5, 15 and 50 mg/kg per oral route, p<0.05 / p<0.01 vs control, FIG. 12 right) | tissular reaction: number of inflammatory cells ([3]; 5, 15 and 50 mg/kg per oral route, p<0.05 vs control, FIG. 11 left) | tissular reaction: volume of the exudate ([3]; 5, 15 and 50 mg/kg per oral route, p<0.05 vs control, FIG. 11 right) | progression of osteoarthritis ([5]; patients with osteoarthritis) | safety of use ([5]; patients with osteoarthritis)
1 | O=C(O)c1cc(O)c2c(c1)C(=O)c1cccc(O)c1C2=O [rhein] | time-dependant increase | prevents the apoptosis | preserve the integrity of the implanted tissue | reduce the tissular reaction | very slightly soluble | very slightly soluble | moderate |  |  |  |  |  |  |  |  | 
2 | CC(=O)Oc1cccc2c1C(=O)c1c(OC(C)=O)cc(C(=O)O)cc1C2=O [diacerein] | time-dependant increase |  | preserve the integrity of the implanted tissue | reduce the tissular reaction | very slightly soluble | very slightly soluble | moderate | dose-dependent increase | prevents the cellular destruction | dose-dependent reduction | preserves the integrity of the grafted tissue | preserves the integrity of the grafted tissue | reduced in a dose-dependent manner | reduced in a dose-dependent manner | slows down the progression of osteoarthritis | good safety of use
